Assay [1] deals with S. aureus JE2 vraF transposon mutant (SAUSA300_0647). In words: microbe, parasite or virus in culture. The following applies: Etest on TSA. An excerpt: (§1) Staphylococcus aureus is intrinsically resistant to the clinically approved cationic antimicrobial peptides polymyxin B (PMB) and colistin ([1], [16]). […] The MIC for PMB was subsequently determined using Etests for the identified mutants.
(§2) The strains used in this study include S. aureus strain JE2 (plasmid-cured derivative of USA300 LAC) and all derivative strains within the Nebraska Transposon Mutant Library (NTML), consisting of 1,920 unique transposon mutants with inactivation of nonessential genes ([15]). The bursa aurealis transposon used to create the collection contains the resistance cassette ermB, which confers resistance to erythromycin ([15]). Additionally we used S. aureus SA113 and two derivatives, SA113 ΔdltA ([9]) and SA113 ΔmprF ([10]). All bacterial strains were cultured at 37°C in tryptic soy broth (TSB) or on tryptic soy agar (TSA), with antimicrobial agents added as indicated. Two methods have been employed to determine MICs to various antimicrobial agents. (i) A 2-fold broth microdilution assay in TSB (100 µl) with an initial inoculum of approximately 5 × 10^5 cells/ml was employed to determine the MICs of polymyxin B sulfate (Sigma), gallidermin (Santa Cruz Biotechnology), nisin (Sigma), bacitracin (Sigma), and LL-37 (Isca Biochemicals). […] The MIC was determined upon incubation at 37°C for 22 h. […]

The subject of assay [2] is S. aureus JE2 atpA transposon mutant (SAUSA300_2060). In words: microbe, parasite or virus in culture. Conditions: Etest on TSA.
From the text: as §1, §2

The subject of assay [3] is S. aureus JE2 graR transposon mutant (SAUSA300_0645). The assay is described as follows: microbe, parasite or virus in culture. Conditions: Etest on TSA.
From the text: as §1, §2

The test system of assay [4] is S. aureus JE2 vraG transposon mutant (SAUSA300_0648). The assay is described as follows: microbe, parasite or virus in culture. The following applies: Etest on TSA.
From the text: as §1, §2

In assay [5] the test system is S. aureus JE2 (wild type). In words: microbe, parasite or virus in culture. Conditions: Etest on TSA, 37°C, 22 h; wild type S. aureus JE2.
From the text: as §1, §2

Assay [6] concerns S. aureus SA113 ΔdltA mutant. It is filed as cell-based, Staphylococcus aureus. The following applies: MIC method not given, 37°C, 22 h. An excerpt: The strains used in this study include S. aureus strain JE2 (plasmid-cured derivative of USA300 LAC) and all derivative strains within the Nebraska Transposon Mutant Library (NTML), consisting of 1,920 unique transposon mutants with inactivation of nonessential genes ([15]). The bursa aurealis transposon used to create the collection contains the resistance cassette ermB, which confers resistance to erythromycin ([15]). Additionally we used S. aureus SA113 and two derivatives, SA113 ΔdltA ([9]) and SA113 ΔmprF ([10]). All bacterial strains were cultured at 37°C in tryptic soy broth (TSB) or on tryptic soy agar (TSA), with antimicrobial agents added as indicated. Two methods have been employed to determine MICs to various antimicrobial agents. (i) A 2-fold broth microdilution assay in TSB (100 µl) with an initial inoculum of approximately 5 × 10^5 cells/ml was employed to determine the MICs of polymyxin B sulfate (Sigma), gallidermin (Santa Cruz Biotechnology), nisin (Sigma), bacitracin (Sigma), and LL-37 (Isca Biochemicals). (ii) An Etest (BioMérieux) performed on TSA plates was employed to determine MICs for polymyxin B, colistin, ciprofloxacin, oxacillin, linezolid, gentamicin, vancomycin, and daptomycin. The MIC was determined upon incubation at 37°C for 22 h. When indicated, the Etest (BioMérieux) was performed on Mueller-Hinton agar plates (cation adjusted for calcium and magnesium).

The test system of another assay is S. aureus JE2 (WT). In words: Kill curve experiment, polymyxin B with or without oligomycin A. It is filed as cell-based, Staphylococcus aureus. Conditions: WT JE2 in TSB; PMB alone at 0.25× MIC of WT; 4 h. An excerpt:
The ATP synthase is a well-described protein complex, and multiple inhibitors have been identified that interfere with its function—e.g., the macrolide oligomycin A ([32]). […] The combinatory efficacy of PMB and oligomycin A is similar to the observed killing efficacy of PMB against the atpA mutant.
FIG 4 Improved killing efficacy of PMB upon inhibition of the ATP synthase. […] The data represent the average from three measurements, with error bars showing 95% confidence intervals.
From overnight cultures of S. aureus JE2 and the derivative atpA mutant, 100 μl was diluted into 900 μl fresh TSB medium in a Falcon tube and grown for 1 h for the cells to reach the early exponential phase. After 1 h, the cultures were diluted into 10 ml fresh TSB medium in 100-ml Erlenmeyer flasks, reaching an initial cell count of approximately 10^6 cells/ml. Oligomycin A (Sigma) was added to flasks as indicated at a concentration of 8 μg/ml. […] CFU were determined on TSA plates before addition of oligomycin A (time zero [T0]), before addition of polymyxin B (time 30 min [T30]), and every hour for the following 4 h.

Structures are written as SMILES. Converted amounts (≈) assume the structure as drawn. Bridge positions count the residues as written; N and C are the ends. Square brackets hold non-standard residues; d marks the D form. Peptide text beside a SMILES is read from it. * marks the point of attachment. X1 = CC[C@H](C)CCCCC(=O)*; Dab = NCC[C@H](N)C(=O)O

On to `CC[C@H](C)CCCCC(=O)N[C@@H](CCN)C(=O)N[C@H](C(=O)N[C@@H](CCN)C(=O)N[C@H]1CCNC(=O)[C@H]([C@@H](C)O)NC(=O)[C@H](CCN)NC(=O)[C@H](CCN)NC(=O)[C@H](CC(C)C)NC(=O)[C@@H](Cc2ccccc2)NC(=O)[C@H](CCN)NC1=O)[C@@H](C)O` [Polymyxin B, polymyxin B] (X1-[Dab]T[Dab][Dab][Dab][dF]L[Dab][Dab]T; lactam 4-C (inferred); N-terminus assumed), for which the MIC in assay [1] (37°C, 22 h, vraF mutant) was found to be 16 µg/mL (≈ 13.3 µM); in assay [2] (37°C, 22 h, atpA mutant), 16 µg/mL (≈ 13.3 µM); in assay [3] (37°C, 22 h, graR mutant) it was 16 µg/mL (≈ 13.3 µM); in assay [4] (37°C, 22 h, vraG mutant) it was 16 µg/mL (≈ 13.3 µM); in assay [5], 128 µg/mL (≈ 106 µM); in assay [6], 48 µg/mL (≈ 39.9 µM). In addition, the “fold reduction in MIC / increased sensitivity relative to WT” value in assay [1] (vraF mutant vs WT JE2), in assay [2] (atpA mutant vs WT JE2), in assay [3] (graR mutant vs WT JE2) and in assay [4] (vraG mutant vs WT JE2) was 8 fold throughout. Moreover, in the assay with S. aureus JE2 (WT), the “killing efficacy (CFU over time)” value is recorded as “continued growth”.

The values are drawn from article PMC5587909, “Inhibition of the ATP Synthase Eliminates the Intrinsic Resistance of Staphylococcus aureus towards Polymyxins” (mBio, 2017).
